Columns and labels:
Format in all cases: in vivo
Kochia (Kochia scoparia) [1] = experiment: Test A preemergence; conditions: Bassia scoparia, pre-emergence, 240 h, Preemergence; for pest or weed control at 31 g/ha: 31 g ai/ha, 0 to 100 scale where 0 is no effect and 100 is complete control, read-out: Kochia plant response rating; for pest or weed control at 125 g/ha: 125 g ai/ha, visual injury rating after approximately 10 d, read-out: Kochia plant response rating (0 to 100 scale, 0 is no effect, 100 is complete control)
Outline: (§1)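 Greenhouse, ~10 d after spray; visual injury vs untreated controls, 0 = no effect, 100 = complete control. Preemergence: directed soil spray over planted seeds. Postemergence: plants 2–10 cm, 1–2 leaf stage. Loam/sand blend. Compound in non-phytotoxic solvent with surfactant.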

[2] = tested on: barnyardgrass (Echinochloa crus-galli); experiment: Test A preemergence; conditions: Echinochloa crus-galli, pre-emergence, 240 h, Preemergence; for pest or weed control at 125 g/ha: 125 g ai/ha, visual injury rating after approximately 10 d, read-out: Barnyardgrass plant response rating (0 to 100 scale, 0 is no effect, 100 is complete control); for pest or weed control at 31 g/ha: 31 g ai/ha, 0 to 100 scale (0 no effect, 100 complete control), read-out: Plant response rating, Barnyardgrass
Outline: as §1

[3] = tested on: giant foxtail (Setaria faberii); experiment: Test A preemergence; conditions: Setaria faberi, pre-emergence, 240 h, Preemergence; for pest or weed control at 125 g/ha: 125 g ai/ha, visual injury rating after approximately 10 d, read-out: Foxtail, Giant plant response rating (0 to 100 scale, 0 is no effect, 100 is complete control); for pest or weed control at 31 g/ha: 31 g ai/ha, 0 to 100 scale (0 no effect, 100 complete control), read-out: Plant response rating, Foxtail, Giant
Outline: as §1

[4] = tested on: pigweed (Amaranthus retroflexus); experiment: Test A preemergence; conditions: Amaranthus retroflexus, pre-emergence, 240 h, Preemergence; for pest or weed control at 31 g/ha: 31 g ai/ha, 0 to 100 scale where 0 is no effect and 100 is complete control, read-out: Pigweed plant response rating; for pest or weed control at 125 g/ha: 125 g ai/ha, visual injury rating after approximately 10 d, read-out: Pigweed plant response rating (0 to 100 scale, 0 is no effect, 100 is complete control)
[5] = tested on: ragweed (common ragweed, Ambrosia elatior); experiment: Test A preemergence; conditions: Ambrosia artemisiifolia, pre-emergence, 240 h, Preemergence; for pest or weed control at 31 g/ha: 31 g ai/ha, 0 to 100 scale where 0 is no effect and 100 is complete control, read-out: Ragweed plant response rating; for pest or weed control at 125 g/ha: 125 g ai/ha, visual injury rating after approximately 10 d, read-out: Ragweed plant response rating (0 to 100 scale, 0 is no effect, 100 is complete control)
Outline: as §1

[6] = tested on: ryegrass, Italian (Italian ryegrass, Lolium multiflorum); experiment: Test A preemergence; conditions: Lolium multiflorum, pre-emergence, 240 h, Preemergence; for pest or weed control at 31 g/ha: 31 g ai/ha, 0 to 100 scale where 0 is no effect and 100 is complete control, read-out: Ryegrass, Italian plant response rating; for pest or weed control at 125 g/ha: 125 g ai/ha, visual injury rating after approximately 10 d, read-out: Ryegrass, Italian plant response rating (0 to 100 scale, 0 is no effect, 100 is complete control)
Outline: as §1

[7] = tested on: Galium (catchweed bedstraw, Galium aparine); experiment: Test A postemergence; conditions: Galium, post-emergence, 240 h, Postemergence, read-out: Plant response rating, Galium; for pest or weed control at 125 g/ha: 125 g ai/ha, visual injury after approximately 10 d, 0 to 100 scale where 0 is no effect and 100 is complete control; for pest or weed control at 31 g/ha: 31 g ai/ha, visual injury after approx. 10 d, 0 to 100 scale, 0 no effect, 100 complete control
Outline: as §1

Kochia (Kochia scoparia) [8] = experiment: Test A postemergence; conditions: Bassia scoparia, post-emergence, 240 h, Postemergence, read-out: Plant response rating, Kochia; for pest or weed control at 125 g/ha: 125 g ai/ha, visual injury after approximately 10 d, 0 to 100 scale where 0 is no effect and 100 is complete control; for pest or weed control at 31 g/ha: 31 g ai/ha, visual injury after approx. 10 d, 0 to 100 scale, 0 no effect, 100 complete control
Outline: as §1

[9] = tested on: barnyardgrass (Echinochloa crus-galli); experiment: Test A postemergence; conditions: Echinochloa crus-galli, post-emergence, 240 h, Postemergence, read-out: Plant response rating, Barnyardgrass; for pest or weed control at 125 g/ha: 125 g ai/ha, visual injury after approximately 10 d, 0 to 100 scale where 0 is no effect and 100 is complete control; for pest or weed control at 31 g/ha: 31 g ai/ha, visual injury after approx. 10 d, 0 to 100 scale, 0 no effect, 100 complete control
Outline: as §1

[10] = tested on: blackgrass (Alopecurus myosuroides); experiment: Test A postemergence; conditions: Alopecurus myosuroides, post-emergence, 240 h, Postemergence, read-out: Plant response rating, Blackgrass; for pest or weed control at 125 g/ha: 125 g ai/ha, visual injury after approximately 10 d, 0 to 100 scale where 0 is no effect and 100 is complete control; for pest or weed control at 31 g/ha: 31 g ai/ha, visual injury after approx. 10 d, 0 to 100 scale, 0 no effect, 100 complete control
Outline: as §1

corn (Zea mays) = experiment: Test A postemergence; conditions: Zea mays, post-emergence, 240 h, Postemergence; for Corn plant response rating (crop injury, 0 = no effect, 100 = complete kill) at 125 g/ha: 125 g ai/ha, visual injury after approximately 10 d, 0 to 100 scale where 0 is no effect and 100 is complete control; for Corn plant response rating (crop injury, 0 = no effect, 100 = complete kill) at 31 g/ha: 31 g ai/ha, visual injury after approx. 10 d, 0 to 100 scale, 100 complete control
Outline: as §1

[11] = tested on: giant foxtail (Setaria faberii); experiment: Test A postemergence; conditions: Setaria faberi, post-emergence, 240 h, Postemergence, read-out: Plant response rating, Foxtail, Giant; for pest or weed control at 125 g/ha: 125 g ai/ha, visual injury after approximately 10 d, 0 to 100 scale where 0 is no effect and 100 is complete control; for pest or weed control at 31 g/ha: 31 g ai/ha, visual injury after approx. 10 d, 0 to 100 scale, 0 no effect, 100 complete control
Outline: as §1

[12] = tested on: pigweed (Amaranthus retroflexus); experiment: Test A postemergence; conditions: Amaranthus retroflexus, post-emergence, 240 h, Postemergence, read-out: Plant response rating, Pigweed; for pest or weed control at 125 g/ha: 125 g ai/ha, visual injury after approximately 10 d, 0 to 100 scale where 0 is no effect and 100 is complete control; for pest or weed control at 31 g/ha: 31 g ai/ha, visual injury after approx. 10 d, 0 to 100 scale, 0 no effect, 100 complete control
Outline: as §1

[13] = tested on: ragweed (common ragweed, Ambrosia elatior); experiment: Test A postemergence; conditions: Ambrosia artemisiifolia, post-emergence, 240 h, Postemergence, read-out: Plant response rating, Ragweed; for pest or weed control at 125 g/ha: 125 g ai/ha, visual injury after approximately 10 d, 0 to 100 scale where 0 is no effect and 100 is complete control; for pest or weed control at 31 g/ha: 31 g ai/ha, visual injury after approx. 10 d, 0 to 100 scale, 0 no effect, 100 complete control
Outline: as §1

[14] = tested on: ryegrass, Italian (Italian ryegrass, Lolium multiflorum); experiment: Test A postemergence; conditions: Lolium multiflorum, post-emergence, 240 h, Postemergence, read-out: Plant response rating, Ryegrass, Italian; for pest or weed control at 125 g/ha: 125 g ai/ha, visual injury after approximately 10 d, 0 to 100 scale where 0 is no effect and 100 is complete control; for pest or weed control at 31 g/ha: 31 g ai/ha, visual injury after approx. 10 d, 0 to 100 scale, 0 no effect, 100 complete control
Outline: as §1

[15] = tested on: wheat (Triticum aestivum); experiment: Test A postemergence; conditions: Triticum aestivum, post-emergence, 240 h, Postemergence, read-out: Plant response rating, Wheat; for plant injury at 125 g/ha: 125 g ai/ha, visual injury after approximately 10 d, 0 to 100 scale where 0 is no effect and 100 is complete control; for plant injury at 31 g/ha: 31 g ai/ha, visual injury after approx. 10 d, 0 to 100 scale, 0 no effect, 100 complete control
Outline: as §1

[16] = tested on: barnyardgrass (Echinochloa crus-galli); experiment: Test B flooded paddy test; conditions: Echinochloa crus-galli, 250 g ai/ha, Flood; 0 to 100 scale where 0 is no effect and 100 is complete control; read-out: Barnyardgrass plant response rating
Outline: (§2)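 Greenhouse paddy pots with 2-leaf stage plants received compound by direct addition to floodwater 3 cm deep, kept at that level. Scored visually at 13–15 d versus controls (0 no effect; 100 complete control).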

[17] = tested on: ducksalad (Heteranthera limosa); experiment: Test B flooded paddy test; conditions: Heteranthera limosa, 250 g ai/ha, Flood; 0 to 100 scale where 0 is no effect and 100 is complete control; read-out: Ducksalad plant response rating
Outline: as §2

rice (Oryra sativa) = experiment: Test B flooded paddy test; conditions: Oryza sativa, 250 g ai/ha, Flood; 0 to 100 scale where 0 is no effect and 100 is complete control; read-out: Rice plant response rating
Outline: as §2

[18] = tested on: sedge, umbrella (small-flower umbrella sedge, Cyperus difformis); experiment: Test B flooded paddy test; conditions: Cyperus difformis, 250 g ai/ha, Flood; 0 to 100 scale where 0 is no effect and 100 is complete control; read-out: Sedge, Umbrella plant response rating
Outline: as §2

CN1CC[C@H](c2ccccc2C(F)(F)F)[C@@H](C(=O)Nc2cccc(F)c2F)C1=O [Compound 1009]
0%: pest or weed control at 31 g/ha (Kochia (Kochia scoparia) [1]) | pest or weed control at 125 g/ha (Kochia (Kochia scoparia) [1]) | pest or weed control at 125 g/ha [2] | pest or weed control at 31 g/ha [2] | pest or weed control at 125 g/ha [3] | pest or weed control at 31 g/ha [3] | pest or weed control at 31 g/ha [4] | pest or weed control at 125 g/ha [4] | pest or weed control at 31 g/ha [5] | pest or weed control at 125 g/ha [5] | pest or weed control at 31 g/ha [6] | pest or weed control at 125 g/ha [6] | pest or weed control at 125 g/ha [7] | pest or weed control at 31 g/ha [7] | pest or weed control at 125 g/ha (Kochia (Kochia scoparia) [8]) | pest or weed control at 31 g/ha (Kochia (Kochia scoparia) [8]) | pest or weed control at 125 g/ha [9] | pest or weed control at 31 g/ha [9] | pest or weed control at 125 g/ha [10] | pest or weed control at 31 g/ha [10] | Corn plant response rating (crop injury, 0 = no effect, 100 = complete kill) at 125 g/ha (corn (Zea mays)) | Corn plant response rating (crop injury, 0 = no effect, 100 = complete kill) at 31 g/ha (corn (Zea mays)) | pest or weed control at 125 g/ha [11] | pest or weed control at 31 g/ha [11] | pest or weed control at 125 g/ha [12] | pest or weed control at 31 g/ha [12] | pest or weed control at 125 g/ha [13] | pest or weed control at 31 g/ha [13] | pest or weed control at 125 g/ha [14] | pest or weed control at 31 g/ha [14] | plant injury at 125 g/ha [15] | plant injury at 31 g/ha [15] | pest or weed control at 250 g/ha [16] | pest or weed control at 250 g/ha [17] | pest or weed control at 250 g/ha (rice (Oryra sativa)) | pest or weed control at 250 g/ha [18]

CN1CC[C@H](c2ccccc2C(F)(F)F)[C@@H](C(=O)Nc2ccc(F)c(F)c2F)C1=O [Compound 1010]
0%: pest or weed control at 31 g/ha (Kochia (Kochia scoparia) [1]) | pest or weed control at 125 g/ha (Kochia (Kochia scoparia) [1]) | pest or weed control at 125 g/ha [2] | pest or weed control at 31 g/ha [2] | pest or weed control at 125 g/ha [3] | pest or weed control at 31 g/ha [3] | pest or weed control at 31 g/ha [4] | pest or weed control at 125 g/ha [4] | pest or weed control at 31 g/ha [5] | pest or weed control at 125 g/ha [5] | pest or weed control at 31 g/ha [6] | pest or weed control at 125 g/ha [6] | pest or weed control at 125 g/ha [7] | pest or weed control at 31 g/ha [7] | pest or weed control at 125 g/ha (Kochia (Kochia scoparia) [8]) | pest or weed control at 31 g/ha (Kochia (Kochia scoparia) [8]) | pest or weed control at 125 g/ha [9] | pest or weed control at 31 g/ha [9] | pest or weed control at 125 g/ha [10] | pest or weed control at 31 g/ha [10] | Corn plant response rating (crop injury, 0 = no effect, 100 = complete kill) at 125 g/ha (corn (Zea mays)) | Corn plant response rating (crop injury, 0 = no effect, 100 = complete kill) at 31 g/ha (corn (Zea mays)) | pest or weed control at 125 g/ha [11] | pest or weed control at 31 g/ha [11] | pest or weed control at 125 g/ha [12] | pest or weed control at 31 g/ha [12] | pest or weed control at 125 g/ha [13] | pest or weed control at 31 g/ha [13] | pest or weed control at 125 g/ha [14] | pest or weed control at 31 g/ha [14] | plant injury at 125 g/ha [15] | plant injury at 31 g/ha [15] | pest or weed control at 250 g/ha [16] | pest or weed control at 250 g/ha [17] | pest or weed control at 250 g/ha (rice (Oryra sativa)) | pest or weed control at 250 g/ha [18]

From patent US12077503B2, “Substituted cyclic amides and their use as herbicides” (FMC CORPORATION, priority 2015, dated 2024)
